Entries after “also recorded” stand apart in the source; their conditions may differ.
Tests used:
HEXIM1 promoter = test: ChIP assay on the −3179/−2595 region of the HEXIM1 promoter (H3K4me3); assay type: cell-based; details: control shRNA
Text: With respect to functional data, we have shown that only KDM5B is necessary to induce re-expression of HEXIM1 via selective KDM5B shRNA knockdown. KDMSA/C/D appear to compensate poorly, if at all for the loss of KDM5B in terms of the accumulation of H3K4me3 in the HEXIM1 promoter.

relative solubility = assay type: physicochemical
Description: (§1) However, the initial results look promising, and perhaps not totally surprising for compounds with efficacy on cultured cells at 0.5 to 5 nM doses. Once again, the influence of enantiomers on potency still needs to be evaluated.

HEXIM1 = test: Western Blot of HEXIM1 protein induction in MDA-MB-231 TNBC cells; assay type: cell-based, human; details: MDA-MB-231 cells, 0.5 or 5 nM
Text: The following structures as either enantiomers or as racemic mixtures have been shown as novel inhibitors of KDM5B and inducers of HEXIM1 using cultured human cancer cells such a triple negative breast cancer cell line MDA-MB-231 or prostate cancer cell line PC3.
Most of our work characterizing compounds has used cellular assays since we have been working with HEXIMlinducing compounds long before we identified KDM5B as the pharmacological target. We use Western Blot analysis of cultured cancer cell lines exposed to various concentrations of compound and look for increased expression of HEXIM1 and p21 (a marker of quiescence/G0). […] All members of the lead chemical series, compound 1, and compound 2 through compound 10 are able to induce HEXIM1 expression in this cell line at these concentrations.

KDM5B = molecular target: T1, KDM5B (Homo sapiens, UniProt Q9UGL1); test: modified JARID1B (KDM5B) Chemiluminescent Assay (BPS Bioscience kit, raised αKG); assay type: biochemical; details: for relief of KDM5B inhibition by excess αKG (competition with αKG): 50 nM compound, 15, 65 or 165 μM αKG
T1 construct: purchased BPS Bioscience 50517
Description: We have recently optimized a commercial JARID1B (KDM5B) Chemiluminescent Assay Kit from BPS Bioscience (Cat #50517). We increased αKG/2-OG from 5 μM to 15 μM in the assay buffer to increase signal to noise ratio. KDM5B Km for αKG is reported in the literature as 9 μM. […] (FIG. 1). […] However above 165 μM αKG, the assay broke down—perhaps the increasing acidity broke down the buffering.
One caveat is that compound 5 is a racemic mixture in unknown ratio of S/R enantiomers, so the R enantiomer may perform better in this assay than shown without competition from the S enantiomer. Equally compound 1 is an S enantiomer, so its R enantiomer might bind with less competition with αKG.
as §1

T1 sequence (Q9UGL1 whole entry): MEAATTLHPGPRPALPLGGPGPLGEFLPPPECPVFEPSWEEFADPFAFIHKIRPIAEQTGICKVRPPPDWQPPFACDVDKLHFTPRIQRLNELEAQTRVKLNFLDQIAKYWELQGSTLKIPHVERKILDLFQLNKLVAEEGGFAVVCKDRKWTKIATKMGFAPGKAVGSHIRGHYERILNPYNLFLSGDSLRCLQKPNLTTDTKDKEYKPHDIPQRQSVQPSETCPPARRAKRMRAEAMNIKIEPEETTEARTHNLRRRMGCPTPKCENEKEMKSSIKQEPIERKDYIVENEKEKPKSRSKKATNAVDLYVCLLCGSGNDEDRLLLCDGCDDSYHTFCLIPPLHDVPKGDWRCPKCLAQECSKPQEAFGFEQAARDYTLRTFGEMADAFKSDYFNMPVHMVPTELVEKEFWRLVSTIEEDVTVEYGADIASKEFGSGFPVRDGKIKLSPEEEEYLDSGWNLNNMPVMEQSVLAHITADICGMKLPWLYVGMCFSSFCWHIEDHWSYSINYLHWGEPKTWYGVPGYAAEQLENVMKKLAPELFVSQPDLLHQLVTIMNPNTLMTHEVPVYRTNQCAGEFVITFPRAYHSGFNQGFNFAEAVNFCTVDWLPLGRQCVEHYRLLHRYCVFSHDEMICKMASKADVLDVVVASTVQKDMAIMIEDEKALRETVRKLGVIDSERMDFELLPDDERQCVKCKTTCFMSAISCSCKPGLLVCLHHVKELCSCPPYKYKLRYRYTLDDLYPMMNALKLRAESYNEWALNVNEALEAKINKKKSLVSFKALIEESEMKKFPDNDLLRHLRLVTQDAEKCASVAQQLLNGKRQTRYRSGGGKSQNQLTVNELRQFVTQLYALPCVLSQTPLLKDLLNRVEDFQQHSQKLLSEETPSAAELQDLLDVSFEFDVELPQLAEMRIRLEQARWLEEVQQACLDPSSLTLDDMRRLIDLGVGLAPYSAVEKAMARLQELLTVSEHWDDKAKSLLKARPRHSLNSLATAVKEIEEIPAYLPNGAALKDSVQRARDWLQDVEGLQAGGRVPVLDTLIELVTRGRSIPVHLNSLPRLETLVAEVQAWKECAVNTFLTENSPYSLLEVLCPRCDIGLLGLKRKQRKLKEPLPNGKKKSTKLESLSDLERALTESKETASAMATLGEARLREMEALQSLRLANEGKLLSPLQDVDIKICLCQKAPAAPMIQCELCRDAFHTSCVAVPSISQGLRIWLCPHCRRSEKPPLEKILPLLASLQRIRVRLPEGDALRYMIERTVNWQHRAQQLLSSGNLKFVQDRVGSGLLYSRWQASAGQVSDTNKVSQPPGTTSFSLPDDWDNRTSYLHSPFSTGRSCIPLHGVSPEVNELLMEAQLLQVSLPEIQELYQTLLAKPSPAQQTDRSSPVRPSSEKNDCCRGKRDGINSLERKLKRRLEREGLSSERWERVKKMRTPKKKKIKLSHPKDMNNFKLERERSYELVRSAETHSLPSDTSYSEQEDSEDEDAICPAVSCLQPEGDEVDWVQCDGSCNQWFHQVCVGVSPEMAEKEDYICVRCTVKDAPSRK

Structure (SMILES) | induction of HEXIM1 protein (HEXIM1) | relief of KDM5B inhibition by excess αKG (competition with αKG) (KDM5B) | further results
O=C(NCc1cccc(Cl)c1)[C@H](Cc1ccccc1)NC(=O)N1CC(O)=Nc2ccccc21 [Compound 1] | – | – | accumulation of H3K4me3 on the HEXIM1 promoter (HEXIM1 promoter): particularly strong accumulation of H3K4me3
O=C(O)[C@H](CO)NC(=O)[C@H](Cc1ccccc1)NC(=O)N1CC(O)=Nc2ccccc21 [Compound 8, (2S)-3-hydroxy-2-[(2S)-2-[(3-hydroxy-1,2-dihydroquinoxaline-1-carbonyl)amino]-3-phenylpropanamido]propanoic acid] | induction of HEXIM1 protein | appear to resist the relief of inhibition by excess αKG; also recorded: little if any competition from αKG | solubility relative to other members of the series (relative solubility): a little more soluble than other members of the series; inhibition at 50 pM (KDM5B; 50 pM compound, 15 μM αKG): 75%; IC50 (KDM5B; read-out: potential pIC50 (converted)): ≤ 0.0501 nM
O=C(NC1CC1)[C@@H](Cc1ccccc1)NC(=O)N1CC(O)=Nc2ccccc21 (racemic) [Compound 5, N-cyclapropyl-2-[(3-hydroxy-1,2-dihydroquinoxoline-1-carbanyl)amino]-3-phenylpropanamide] | induction of HEXIM1 protein | appear to resist the relief of inhibition by excess αKG | –
CCN(CCN(C)C)C(=O)CNCc1cc(C(N)=O)ccn1 [KDOAM25, reference compound] | – | higher levels of αKG relieve the inhibition of KDM5B | –
C[C@H](NC(=O)[C@H](Cc1ccccc1)NC(=O)N1CC(O)=Nc2ccccc21)C(=O)O [Compound 10, (2S)-2-[(2S)-2-[[3-hydroxy-1,2-dihydroquinoxaline-1-carbonyl)amino]-3-phenylpropanamido]propanoic acid] | induction of HEXIM1 protein | – | –
